# Assay results from patent publication US8697873B2, “Amide substituted imidazopyridines, imidazoquinolines, and imidazonaphthyridines” (3M Innovative Properties Company, priority 2004, dated 2014).
# Where a name gives a salt, the structure may show the parent alone.
row,melting point [°C],Structure (SMILES)
1,219 to 221,"CCCCc1nc2c(N)nc3ccccc3c2n1CCCCC(N)=O [Example 52, 5-(4-Amino-2-butyl-1H-imidazo[4,5-c]quinolin-1-yl)pentanamide]"
2,131 to 132,"COCCc1nc2c(N)nc3ccccc3c2n1CCCCCC(=O)N1CCOCC1 [Example 12, 2-(2-Methoxyethyl)-1-(6-morpholin-4-yl-6-oxohexyl)-1H-imidazo[4,5-c]quinolin-4-amine]"
3,164 to 165,"CCCc1nc2c(N)nc(C)c(C)c2n1CCCC(=O)N1CCOCC1 [Example 41, 6,7-Dimethyl-1-(4-morpholin-4-yl-4-oxobutyl)-2-propyl-1H-imidazo[4,5-c]pyridin-4-amine]"
4,128 to 129,"CCOCc1nc2c(N)nc3ccccc3c2n1CCCCC(=O)N1CCOCC1 [Example 48, 2-(Ethoxymethyl)-1-(5-morpholin-4-yl-5-oxopentyl)-1H-imidazo[4,5-c]quinolin-4-amine]"
5,187 to 189,"CCOCc1nc2c(N)nc3ccccc3c2n1CCC(=O)N1CCOCC1 [Example 23, 2-(Ethoxymethyl)-1-(3-morpholin-4-yl-3-oxopropyl)-1H-imidazo[4,5-c]quinolin-4-amine]"
6,201 to 203,"CCOCc1nc2c(N)nc3ccccc3c2n1CCCC(=O)N1CCOCC1 [Example 5, 2-(Ethoxymethyl)-1-(4-morpholin-4-yl-4-oxobutyl)-1H-imidazo[4,5-c]quinolin-4-amine]"
7,207 to 209,"CCCc1nc2c(N)nc3ccccc3c2n1CCC(=O)N(C)C [Example 51, 3-(4-Amino-2-propyl-1H-imidazo[4,5-c]quinolin-1-yl)-N,N-dimethylpropanamide]"
8,227 to 230,"CCc1nc2c(N)nc3ccccc3c2n1CC1(C(N)=O)CCC1 [Example 66, 1-[(4-Amino-2-ethyl-1H-imidazo[4,5-c]quinolin-1-yl)methyl]cyclobutanecarboxamide]"
9,148 to 150,"CCCc1nc2c(N)nc3cccnc3c2n1CCCCCC(=O)N1CCOCC1 [Example 53, 1-(6-Morpholin-4-yl-6-oxohexyl)-2-propyl-1H-imidazo[4,5-c][1,5]naphthyridin-4-amine]"
10,181 to 183,"CCCc1nc2c(N)nc3c(c2n1CCCC(=O)N1CCOCC1)CCCC3 [Example 29, 1-(4-Morpholin-4-yl-4-oxobutyl)-2-propyl-6,7,8,9-tetrahydro-1H-imidazo[4,5-c]quinolin-4-amine]"
11,215 to 217,"CCOCc1nc2c(N)nc3cccnc3c2n1CCCCCC(N)=O [Example 58, 6-[4-Amino-2-(ethoxymethyl)-1H-imidazo[4,5-c][1,5]naphthyridin-1-yl]hexanamide]"
12,> 260,"CNC(=O)CCn1cnc2c(N)nc3ccccc3c21 [Example 20, 3-(4-Amino-1H-imidazo[4,5-c]quinolin-1-yl)-N-methylpropanamide]"
13,209 to 210,"CCc1nc2c(N)nc(C)c(C)c2n1CCCC(=O)N1CCOCC1 [Example 43, 2-Ethyl-6,7-dimethyl-1-(4-morpholin-4-yl-4-oxobutyl)-1H-imidazo[4,5-c]pyridin-4-amine]"
14,161 to 162,"CCCNC(=O)CCCCCn1c(COCC)nc2c(N)nc3ccccc3c21 [Example 14, 6-[4-Amino-2-(ethoxymethyl)-1H-imidazo[4,5-c]quinolin-1-yl]-N-propylhexanamide]"
15,139 to 141,"CCCNC(=O)CCCCCn1c(CCC)nc2c(N)nc3ccccc3c21 [Example 7, 6-(4-Amino-2-propyl-1H-imidazo[4,5-c]quinolin-1-yl)-N-propylhexanamide]"
16,210 to 211,"CCCc1nc2c(N)nc3ccccc3c2n1CCCCCC(N)=O [Example 9, 6-(4-Amino-2-propyl-1H-imidazo[4,5-c]quinolin-1-yl)hexanamide]"
17,249 to 251,"CCCc1nc2c(N)nc3ccccc3c2n1CCCC(N)=O [Example 4, 4-(4-Amino-2-propyl-1H-imidazo[4,5-c]quinolin-1-yl)butanamide]"
18,231 to 232,"CCOCc1nc2c(N)nc3cccnc3c2n1CCCC(N)=O [Example 39, 4-[4-Amino-2-(ethoxymethyl)-1H-imidazo[4,5-c][1,5]naphthyridin-1-yl]butanamide]"
19,141 to 143,"CCCCc1nc2c(N)nc3ccccc3c2n1CCCCC(=O)N1CCOCC1 [Example 46, 2-Butyl-1-(5-morpholin-4-yl-5-oxopentyl)-1H-imidazo[4,5-c]quinolin-4-amine]"
20,168 to 170,"CCOCc1nc2c(N)nc3cccnc3c2n1CCCCCC(=O)N1CCOCC1 [Example 57, 2-(Ethoxymethyl)-1-(6-morpholin-4-yl-6-oxohexyl)-1H-imidazo[4,5-c][1,5]naphthyridin-4-amine]"
21,156 to 157,"CCOCc1nc2c(N)nc3cccnc3c2n1CCCC(=O)N1CCOCC1 [Example 38, 2-(Ethoxymethyl)-1-(4-morpholin-4-yl-4-oxobutyl)-1H-imidazo[4,5-c][1,5]naphthyridin-4-amine]"
22,149 to 151,"CCCc1nc2c(N)nc3ccccc3c2n1CCCCCC(=O)N1CCOCC1 [Example 6, 1-(6-Morpholin-4-yl-6-oxohexyl)-2-propyl-1H-imidazo[4,5-c]quinolin-4-amine]"

row,melting point [°C],Structure (SMILES)
1,233 to 235,"CCOCc1nc2c(N)nc3ccccc3c2n1CCCC(N)=O [Example 33, 4-[4-Amino-2-(ethoxymethyl)-1H-imidazo[4,5-c]quinolin-1-yl]butanamide]"
2,> 250,"CCOCc1nc2c(N)nc3ccccc3c2n1CCC(N)=O [Example 24, 3-[4-Amino-2-(ethoxymethyl)-1H-imidazo[4,5-c]quinolin-1-yl]propanamide]"
3,> 300,"CCCc1nc2c(N)nc3ccccc3c2n1CC(N)=O [Example 59, 2-(4-Amino-2-propyl-1H-imidazo[4,5-c]quinolin-1-yl)acetamide]"
4,242 to 243,"CCCc1nc2c(N)nc3ccccc3c2n1CCC(N)=O (as salt: hydrochloride) [Example 18, 3-(4-Amino-2-propyl-1H-imidazo[4,5-c]quinolin-1-yl)propanamide hydrochloride]"
5,188 to 189,"CCCNC(=O)CCn1c(C)nc2c(N)nc3ccccc3c21 [Example 32, 3-(4-Amino-2-methyl-1H-imidazo[4,5-c]quinolin-1-yl)-N-propylpropanamide]"
6,158 to 159,"CCCc1nc2c(N)nc3ccccc3c2n1CCCCCC(=O)NC [Example 8, 6-(4-Amino-2-propyl-1H-imidazo[4,5-c]quinolin-1-yl)-N-methylhexanamide]"
7,158 to 160,"CCCc1nc2c(N)nc3c(c2n1CCCCC(=O)N1CCOCC1)CCCC3 [Example 50, 1-(5-Morpholin-4-yl-5-oxopentyl)-2-propyl-6,7,8,9-tetrahydro-1H-imidazo[4,5-c]quinolin-4-amine]"
8,279 to 281,"CCc1nc2c(N)nc3ccccc3c2n1CC(C)(C)C(N)=O [Example 60, 3-(4-Amino-2-ethyl-1H-imidazo[4,5-c]quinolin-1-yl)-2,2-dimethylpropanamide]"
9,212 to 214,"CCCc1nc2c(N)nc3ccccc3c2n1CC(C)(C)C(=O)N1CCOCC1 [Example 27, 1-(2,2-Dimethyl-3-morpholin-4-yl-3-oxopropyl)-2-propyl-1H-imidazo[4,5-c]quinolin-4-amine]"
10,161 to 163,"CCCNC(=O)CCCn1c(CCC)nc2c(N)nc3ccccc3c21 [Example 2, 4-(4-Amino-2-propyl-1H-imidazo[4,5-c]quinolin-1-yl)-N-propylbutanamide]"
11,178 to 179,"CCCc1nc2c(N)nc3ccccc3c2n1CCCCC(=O)N1CCOCC1 [Example 34, 1-(5-Morpholin-4-yl-5-oxopentyl)-2-propyl-1H-imidazo[4,5-c]quinolin-4-amine]"
12,216.5 to 217.5,"CCCc1nc2c(N)nc3cccnc3c2n1CCCCCC(N)=O [Example 54, 6-(4-Amino-2-propyl-1H-imidazo[4,5-c][1,5]naphthyridin-1-yl)hexanamide]"
13,287 to 289,"CC(C)(Cn1cnc2c(N)nc3ccccc3c21)C(N)=O (as salt: salt) [Example 62, 3-(4-Amino-1H-imidazo[4,5-c]quinolin-1-yl)-2,2-dimethylpropanamide]"
14,177 to 178,"CCCc1nc2c(N)nc3ccccc3c2n1CCC(=O)NC [Example 17, 3-(4-Amino-2-propyl-1H-imidazo[4,5-c]quinolin-1-yl)-N-methylpropanamide]"
15,198 to 200,"CCOCc1nc2c(N)nc3ccccc3c2n1CCCCC(N)=O [Example 49, 5-[4-Amino-2-(ethoxymethyl)-1H-imidazo[4,5-c]quinolin-1-yl]pentanamide]"
16,212 to 214,"CCCNC(=O)CCn1cnc2c(N)nc3ccccc3c21 [Example 21, 3-(4-Amino-1H-imidazo[4,5-c]quinolin-1-yl)-N-propylpropanamide]"
17,230.5 to 232.5,"CCOCc1nc2c(N)nc3ccccc3c2n1CC1(C(N)=O)CC1 [Example 64, 1-{[4-Amino-2-(ethoxymethyl)-1H-imidazo[4,5-c]quinolin-1-yl]methyl}cyclopropanecarboxamide]"
18,237 to 239,"Cc1nc2c(N)nc3ccccc3c2n1CCC(N)=O [Example 31, 3-(4-Amino-2-methyl-1H-imidazo[4,5-c]quinolin-1-yl)propanamide]"
19,199 to 200,"CCOCc1nc2c(N)nc(C)c(C)c2n1CCCC(N)=O [Example 44, 4-[4-Amino-2-(ethoxymethyl)-6,7-dimethyl-1H-imidazo[4,5-c]pyridin-1-yl]butanamide]"
20,241 to 243,"CCOCc1nc2c(N)nc3ccccc3c2n1CC(C)(C)C(N)=O [Example 28, 3-[4-Amino-2-(ethoxymethyl)-1H-imidazo[4,5-c]quinolin-1-yl]-2,2-dimethylpropanamide]"
21,200 to 202,"CCCc1nc2c(N)nc3ccccc3c2n1CCCC(=O)N1CCOCC1 [Example 1, 1-(4-Morpholin-4-yl-4-oxobutyl)-2-propyl-1H-imidazo[4,5-c]quinolin-4-amine]"
22,160 to 162,"CCOCc1nc2c(N)nc3ccccc3c2n1CCCCCC(=O)N1CCOCC1 [Example 13, 2-(Ethoxymethyl)-1-(6-morpholin-4-yl-6-oxohexyl)-1H-imidazo[4,5-c]quinolin-4-amine]"
